{
  "source": "BindingDB's records for doi:10.1021/jm00077a017",
  "about": "(University of Rhode Island, 1994)",
  "key": {"[1]": {"biological_target": "Adenosine deaminase 2 (CECR1) (Homo sapiens) (UniProt Q9NZK5)", "sequence (Q9NZK5 whole entry, looked up)": "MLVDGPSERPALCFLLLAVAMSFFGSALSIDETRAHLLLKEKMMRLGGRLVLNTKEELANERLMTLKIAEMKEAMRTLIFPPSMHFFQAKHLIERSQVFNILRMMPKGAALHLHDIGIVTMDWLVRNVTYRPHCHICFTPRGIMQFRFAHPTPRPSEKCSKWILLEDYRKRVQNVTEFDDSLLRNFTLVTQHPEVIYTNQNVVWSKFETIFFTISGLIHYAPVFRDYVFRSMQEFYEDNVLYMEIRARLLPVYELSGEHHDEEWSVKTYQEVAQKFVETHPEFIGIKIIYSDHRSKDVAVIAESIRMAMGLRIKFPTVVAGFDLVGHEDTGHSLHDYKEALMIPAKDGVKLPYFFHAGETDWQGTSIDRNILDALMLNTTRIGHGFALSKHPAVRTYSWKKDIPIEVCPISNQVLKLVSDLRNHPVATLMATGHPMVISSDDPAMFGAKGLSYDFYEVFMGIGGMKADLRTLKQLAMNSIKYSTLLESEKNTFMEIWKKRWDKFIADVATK", "assay": "Tested for inhibition against human plasma adenosine deaminase (ADA2)"}, "[2]": {"biological_target": "Adenosine deaminase 2 (CECR1) (Homo sapiens) (UniProt Q9NZK5)", "assay": "Tested for binding constant against adenosine deaminase (ADA2) in human plasma"}},
  "data": [
    {"molecule": "Nc1nncc2c1nnn2C1O[C@H](CO)[C@@H](O)[C@H]1O", "note": "(some centres not stated)", "values": [
      {"measurement": "Ki", "setting": "[1]", "result": 1410, "unit": "µM"}
    ]},
    {"molecule": "Nc1ncnc2c1ncn2[C@@H]1O[C@H](CO)[C@@H](O)[C@H]1O", "note": "[[U-14C]adenosine]", "values": [
      {"measurement": "Ki", "setting": "[2]", "result": 2180, "unit": "µM"}
    ]}
  ]
}
